Test results: PubChem BioAssay (NCI)
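Exposure lasted 48 hours, with cells grown in 96-well plates and compounds tested at five concentrations. GI50 = concentration required for 50% inhibition of growth. At the TGI there is no net growth.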

Legend:
Experiment in all cases: NCI anticancer screen, dose series, 48 h
[1] = test system: SF-295 CNS
[2] = test system: SN12C renal
[3] = test system: SF-539 CNS
[4] = test system: OVCAR-4 ovarian
[5] = test system: IGROV1 ovarian
[6] = test system: M14 melanoma
[7] = test system: HT29 colon
[8] = test system: T-47D breast
[9] = test system: DMS 114 small cell lung
[10] = test system: DLD-1 colon
[11] = test system: M19-MEL melanoma

Row | Structure (SMILES) | GI50 [1] [µM] | TGI [1] [µM] | GI50 [2] [µM] | TGI [2] [µM] | GI50 [3] [µM] | TGI [3] [µM] | GI50 [4] [µM] | TGI [4] [µM] | GI50 [5] [µM] | TGI [5] [µM] | GI50 [6] [µM] | TGI [6] [µM] | GI50 [7] [µM] | TGI [7] [µM] | GI50 [8] [µM] | TGI [8] [µM] | TGI [9] [µM] | TGI [10] [µM] | TGI [11] [µM]
1 | CCCCNC(=O)Oc1ccc(/C(=C(/C)Cc2ccc(OC)cc2)c2ccc(OCCN3CCCC3)cc2)cc1 | 1.65 | 3.14 | 1.77 | 3.27 | 1.75 | 3.32 | 1.83 | 4.26 | 2.11 | 4.52 | 1.81 | 3.48 | 1.89 | 3.85 | 1.39 | 4.37 | – | – | –
2 | CCCCC(=O)N/N=C/c1c(O)ccc2ccccc12 | 1.83 | 16.5 | 5.44 | > 100 | 2.8 | > 44.9 | 1.47 | > 33.2 | 0.65 | 7.12 | 1.82 | 14.6 | 27.5 | > 100 | 3.03 | > 100 | – | – | –
3 | CC1C[C@]2(C[C@@H](C)C(=O)O2)O[C@@H]2CC3(C)[C@@H]4CCC5C(C)(C)OC(=O)C[C@H]6OO[C@]4(CC[C@]3(C)C12)CC56O (stereo not given in full) | – | > 100 | – | > 100 | – | > 100 | – | > 100 | – | > 100 | – | > 100 | – | > 100 | – | – | > 100 | > 100 | –
4 | CCOC(=O)C1=C(C)N(NC(N)=O)C(C)(O)C12CCOC2=O (stereo not given) | – | > 100 | – | > 100 | – | > 100 | – | > 100 | – | > 100 | – | > 100 | – | > 100 | – | – | – | > 100 | > 100
5 | Cc1cc2nc3cc(C)c(N)cc3[n+](-c3ccccc3)c2cc1N | 2.94 | > 73.8 | 1.59 | > 23 | 4.39 | > 100 | 3.57 | > 100 | 12.4 | > 100 | 21.2 | > 100 | 7.3 | > 100 | 1.8 | 19.9 | – | – | –
6 | CN1CCN(Cc2ccc(NC(=O)c3cncc(C#Cc4cncc5nccnc45)c3)cc2C(F)(F)F)CC1 | 7.05 | 14.4 | 1.97 | 13.9 | 0.956 | 6 | 1.04 | 12 | 1.52 | 7.07 | 0.83 | 4.33 | 0.914 | 7.87 | 5.61 | 14.9 | – | – | –
7 | Cc1cccc(N2C(=O)C(=O)C(c3nc4ccccc4s3)/C(=N/NC(=S)NN)C2=O)c1C (stereo not given) | – | > 100 | – | > 100 | – | > 100 | – | > 100 | – | > 100 | – | > 100 | – | – | – | – | > 100 | – | > 100
8 | Cc1cc(C(=O)O)c(C)n1-c1cccc(C(=O)O)c1 | > 100 | > 100 | > 100 | > 100 | > 100 | > 100 | > 100 | > 100 | > 100 | > 100 | > 100 | > 100 | > 100 | > 100 | > 100 | > 100 | – | – | –
9 | COCCN1CCN(Cc2ccc(-c3n[nH]c4c3C(=O)c3c(NC(=O)NN5CCOCC5)cccc3-4)cc2)CC1 | 0.0345 | > 10 | 0.0307 | > 10 | 0.029 | 0.086 | 0.0322 | 0.932 | 0.0226 | 1.19 | 0.0296 | 0.38 | 0.0347 | 0.299 | 0.0216 | – | – | – | –
10 | NCCOc1ccccc1/C=C1\c2ccccc2-c2ccc([N+](=O)[O-])cc21 | 1.7 | 3.18 | 1.41 | 2.82 | 1.79 | 3.18 | 1.79 | 3.27 | 1.35 | 2.68 | 1.65 | 3.02 | 1.42 | 2.84 | 1.66 | 3.44 | – | – | –
11 | Cc1ccc(C2=Nc3c(N)ncnc3NC(c3ccc4c(c3)OCO4)C2)cc1 (stereo not given) | 3.45 | 21.7 | 8.61 | > 100 | 4.98 | 21.7 | 17.7 | 74.9 | 3.34 | 26.2 | > 100 | > 100 | 3.81 | 33.9 | 5.72 | > 100 | – | – | –
12 | Cc1[nH]nc2c1N=C(c1ccccc1F)c1cc(C(N)=O)ccc1N2 | 1.28 | 24.9 | 4.2 | > 25 | 0.621 | 3.54 | 5.25 | > 25 | 8.29 | > 22.5 | 7.86 | > 25 | 4.92 | > 25 | 2.89 | > 15.8 | – | – | –
13 | C[n+]1c(-c2ccc(/C=N/NC(=O)c3ccc(C(=O)N/N=C/c4ccc(-c5cn6ccccc6[n+]5C)cc4)cc3)cc2)cn2ccccc21 | 290 | 944 | 213 | 493 | 206 | 349 | 623 | > 1000 | > 1000 | > 1000 | 623 | > 1000 | 137 | 266 | 372 | 928 | – | – | –
14 | Cc1ccn2c(CCc3nnc4cc(C)ccn34)nnc2c1 | – | > 100 | – | > 100 | – | > 100 | – | > 100 | – | > 100 | – | > 100 | – | > 100 | – | > 100 | – | – | –
15 | O=C1C(=O)c2ccccc2C(O)=C1CCCc1ccc(C2CCCCCC2)cc1 | 0.558 | 30.2 | 2.12 | > 100 | 2.56 | > 74.7 | 1.02 | > 100 | 0.486 | 5.89 | 1.86 | 21 | 4.6 | 27.8 | 3.46 | > 45.8 | – | – | –
16 | CC(C)CC(Nc1c(O)ccc2ccccc12)C(=O)O (stereo not given) | – | 66.6 | – | > 100 | – | 47.6 | – | > 100 | – | > 100 | – | > 100 | – | > 100 | – | > 100 | – | – | –
17 | NC(N)=Nc1nc2ccc([N+](=O)[O-])cc2[nH]1 | – | > 100 | – | > 100 | – | > 100 | – | > 100 | – | > 100 | – | > 100 | – | > 100 | – | > 100 | – | – | –
